Laboratory results from patent US20240390434A1, “PROBIOTIC ENHANCERS AND USES THEREOF” (Blis Technologies Limited, priority 2021, published 2024).

Experiments:
Format in all cases: cell-based
[1] = test system: S. sobrinus OMZ176; assay: Deferred antagonism assay, producer S. salivarius K12; conditions: Streptococcus sobrinus, read-out: Size of zone inhibition normalised to control, S. sobrinus OMZ176
Method: (§1) 1-2 producer strain colonies were transferred from a stock plate into 900 μL of suspension solution using a fresh cotton swab. Following this, suspensions were vortexed, and a sample was inoculated onto solid culture media using a fresh cotton swab. The inoculation was a streak that runs diametrically across the agar plate in a 1.5 cm wide strip. The plate was then incubated. Following incubation all visible colonies were removed by swabbing them from the agar surface. The plates were then treated with chloroform by dispensing 2 ml of chloroform onto 4 cm×4 cm piece of cloth and sealing the inverted agar plate on top for 30 minutes. The plates were then air dried for 30 minutes following chloroforming. 1-2 indicator strain colonies were then transferred from a stock plate into complementary suspension solution. The suspensions were then vortexed, and a sample was inoculated onto the same agar surface. These samples were streaked in a perpendicular direction to the initial producer streak.
(§2) Each indicator streak was prepared with fresh a suspension containing cells from a corresponding stock plate containing the indicator strain of interest. Indicator strains suspension samples were transferred using a fresh cotton swab. Results were measured by qualitatively reviewing the subsequent (if any) sizes of the zones of inhibition (ZOI) of indicator strain colony growth. A positive result is when there is a distinctive reduction or complete inhibition of indicator colony growth on the culture medium.
(§3) Method: CABCa agar plates were prepared with or without 0.5, 1.25, 1.7, 2.5, 3.3 and 5% galactose by the addition of 0.5% (w/v) calcium carbonate to solid CAB agar in bottles and then melted by autoclaving at 110° C. for 10 mins. Once cooled, filter sterilised solutions of the saccharides or distilled water were added and mixed and then 20 ml pipetted into petri dishes.
(§4) A deferred antagonism assay was conducted using K12 or M18 raw ingredient suspended in Todd Hewitt broth (THB). This was spread as a 1.2 cm streak containing approximately 1-2×10^6 cfu down the middle of a CABCa control or CABCa galactose supplemented test plate. After 18 hrs growth at 37° C. with 5% CO2, bacterial growth was removed, and the pH of the agar in the initial streak was measured and adjusted to a pH of 6.5-7.5 using 0.5M sodium carbonate pH11 before sterilizing the agar surface using chloroform vapor. Bacterial test strains were suspended in i-THB before being swabbed across the plates perpendicular to the initial streak. Plates were incubated for a further 18 hrs incubation at 37° C. with 5% CO2 before measuring (mm) any zones of inhibition for each test strain, […]

[2] = test system: S. mutans OMZ175; assay: as above
Method: as §1, §2
(§5) CABCa agar plates containing various concentrations of saccharide were prepared according to the methods described in Method 1. Producer strains were transferred from stock agar plates into 900 μL THB using a fresh cotton swab. A plastic spread plater was cut to approximately 1.2 cm width and then dipped into ethanol and left to air dry to ensure sterility. A 100 μL sample of the producer strain suspension was then dispensed onto the agar surface in a straight line running diametrically across the agar surface in (approximately) 20 μL spots. The spots were spaced approximately 1.5 cm apart from each other. The plastic spreader was then used to evenly distribute the spots across the agar surface in a 1.5 cm wide strip. This step was taken to ensure an even producer streak was inoculated onto the agar surface and provided an approximate measure of the initial inoculum concentration. Separate plastic spreaders were used for samples containing different producer strains. The samples were left to soak into the agar surface until there was no visible liquid remaining on the agar surface (approximately 20 minutes). Following producer streak preparations, the deferred antagonism assay protocol was followed as per Method 2. Results were recorded by measuring the size of the zone of inhibition (ZOI) in mm.
(§6) A dose response assay was carried out according to method 3 above, except a 1.2 cm streak was used. For the individual saccharide testing the pH of the producer streak was adjusted after the growth of producer to change the acidic conditions.
as §4

[3] = test system: S. pneumoniae D39; assay: as above
Method: as §1, §2, §5, §6, §4

[4] = test system: S. saprophyticus ATCC 15305; assay: as above
Method: as §1, §2, §5, §6, §4

[5] = test system: S. sobrinus OMZ176; assay: Deferred antagonism assay, producer S. salivarius M18; conditions: Streptococcus sobrinus, read-out: Size of zone inhibition normalised to control, S. sobrinus OMZ176
Method: as §1, §2, §3, §4

[6] = test system: microorganisms associated with skin, dental, ENTR; assay: Dose response assay, raffinose vs equimolar trimix and individual saccharides, K12; conditions: equimolar concentration
Method: as §5, with “mm. […]” for “mm.”

[7] = test system: H. influenzae TW5; assay: Dose response deferred antagonism assay, producer M18; conditions: 1.5% (w/v) raffinose
[8] = test system: P. aeruginosa I2; assay: as above; conditions: 1.5% (w/v) raffinose
[9] = 2.5, 5 and 10% w/v raffinose added
[10] = K12, Raffinose 1.7% wt, pH adjusted
[11] = K12, Raffinose 2.5% wt, pH adjusted
[12] = K12, Raffinose 3.3% wt, pH adjusted
[13] = K12, Raffinose 5% wt, pH adjusted
[14] = K12, Raffinose 10% wt, pH adjusted
[15] = K12, saccharide range 2.5%-10% w/v

O=C[C@H](O)[C@@H](O)[C@@H](O)[C@H](O)CO [Galactose, D-galactose]
zone of inhibition at 1.25 % strength ([1]; Galactose 1.25% w/w): 0 mm
zone of inhibition at 1.7 % strength ([1]; Galactose 1.7% w/w): 0 mm
zone of inhibition at 2.5 % strength ([1]; Galactose 2.5% w/w): 0 mm
zone of inhibition at 3.3 % strength ([1]; Galactose 3.3% w/w): 0 mm
zone of inhibition at 5 % strength ([1]; Galactose 5% w/w): 0 mm
zone of inhibition at 0.5 % strength ([2]; Streptococcus mutans, OMZ175, K12, Galactose 0.5% w/w, read-out: Size of zone inhibition normalised to control, S. mutans OMZ175): 10 mm
zone of inhibition at 1.25 % strength ([2]; Streptococcus mutans, OMZ175, K12, Galactose 1.25% w/w, read-out: Size of zone inhibition normalised to control, S. mutans OMZ175): 10 mm
zone of inhibition at 1.7 % strength ([2]; Streptococcus mutans, OMZ175, K12, Galactose 1.7% w/w, read-out: Size of zone inhibition normalised to control, S. mutans OMZ175): 0 mm
zone of inhibition at 2.5 % strength ([2]; Streptococcus mutans, OMZ175, K12, Galactose 2.5% w/w, read-out: Size of zone inhibition normalised to control, S. mutans OMZ175): 0 mm
zone of inhibition at 3.3 % strength ([2]; Streptococcus mutans, OMZ175, K12, Galactose 3.3% w/w, read-out: Size of zone inhibition normalised to control, S. mutans OMZ175): 0 mm
zone of inhibition at 5 % strength ([2]; Streptococcus mutans, OMZ175, K12, Galactose 5% w/w, read-out: Size of zone inhibition normalised to control, S. mutans OMZ175): 0 mm
zone of inhibition at 0.5 % strength ([3]; Streptococcus pneumoniae, D39, K12, Galactose 0.5% w/w, read-out: Size of zone inhibition normalised to control, S. pneumoniae D39): 8 mm
zone of inhibition at 1.25 % strength ([3]; Streptococcus pneumoniae, D39, K12, Galactose 1.25% w/w, read-out: Size of zone inhibition normalised to control, S. pneumoniae D39): 3 mm
zone of inhibition at 1.7 % strength ([3]; Streptococcus pneumoniae, D39, K12, Galactose 1.7% w/w, read-out: Size of zone inhibition normalised to control, S. pneumoniae D39): 2 mm
zone of inhibition at 2.5 % strength ([3]; Streptococcus pneumoniae, D39, K12, Galactose 2.5% w/w, read-out: Size of zone inhibition normalised to control, S. pneumoniae D39): 6 mm
zone of inhibition at 3.3 % strength ([3]; Streptococcus pneumoniae, D39, K12, Galactose 3.3% w/w, read-out: Size of zone inhibition normalised to control, S. pneumoniae D39): 0 mm
zone of inhibition at 5 % strength ([3]; Streptococcus pneumoniae, D39, K12, Galactose 5% w/w, read-out: Size of zone inhibition normalised to control, S. pneumoniae D39): 0 mm
zone of inhibition at 0.5 % strength ([4]; Staphylococcus saprophyticus, ATCC15305, K12, Galactose 0.5% w/w, read-out: Size of zone inhibition normalised to control, S. saprophyticus ATCC 15305): 0 mm
zone of inhibition at 1.25 % strength ([4]; Staphylococcus saprophyticus, ATCC15305, K12, Galactose 1.25% w/w, read-out: Size of zone inhibition normalised to control, S. saprophyticus ATCC 15305): 0 mm
zone of inhibition at 1.7 % strength ([4]; Staphylococcus saprophyticus, ATCC15305, K12, Galactose 1.7% w/w, read-out: Size of zone inhibition normalised to control, S. saprophyticus ATCC 15305): 0 mm
zone of inhibition at 2.5 % strength ([4]; Staphylococcus saprophyticus, ATCC15305, K12, Galactose 2.5% w/w, read-out: Size of zone inhibition normalised to control, S. saprophyticus ATCC 15305): 0 mm
zone of inhibition at 3.3 % strength ([4]; Staphylococcus saprophyticus, ATCC15305, K12, Galactose 3.3% w/w, read-out: Size of zone inhibition normalised to control, S. saprophyticus ATCC 15305): 0 mm
zone of inhibition at 5 % strength ([4]; Staphylococcus saprophyticus, ATCC15305, K12, Galactose 5% w/w, read-out: Size of zone inhibition normalised to control, S. saprophyticus ATCC 15305): 0 mm
zone of inhibition at 0.5 % strength ([5]; Galactose 0.5% w/w): 0 mm
zone of inhibition at 1.25 % strength ([5]; Galactose 1.25% w/w): 0 mm
zone of inhibition at 1.7 % strength ([5]; Galactose 1.7% w/w): 0 mm
zone of inhibition at 2.5 % strength ([5]; Galactose 2.5% w/w): 0 mm
zone of inhibition at 3.3 % strength ([5]; Galactose 3.3% w/w): 0 mm
zone of inhibition at 5 % strength ([5]; Galactose 5% w/w): 0 mm

OC[C@H]1O[C@H](OC[C@H]2O[C@H](O[C@]3(CO)O[C@H](CO)[C@@H](O)[C@@H]3O)[C@H](O)[C@@H](O)[C@@H]2O)[C@H](O)[C@@H](O)[C@H]1O [Raffinose, D-(+) Raffinose pentahydrate]
inhibitory activity of K12 compared to equivalent composition of the three monomeric saccharides [6]: better inhibitory activity
sensitivity of S. mutans OMZ175 to K12 [2, 9]: sensitive
Zone of inhibition S. mutans OMZ175 ([2]; K12, Raffinose 1.7% wt): 11 mm
Zone of inhibition S. mutans OMZ175 [2, 10]: 7 mm
Zone of inhibition S. mutans OMZ175 ([2]; K12, Raffinose 2.5% wt): 16 mm
Zone of inhibition S. mutans OMZ175 [2, 11]: 13 mm
Zone of inhibition S. mutans OMZ175 ([2]; K12, Raffinose 3.3% wt): 16 mm
Zone of inhibition S. mutans OMZ175 [2, 12]: 14 mm
Zone of inhibition S. mutans OMZ175 ([2]; K12, Raffinose 5% wt): 16 mm
Zone of inhibition S. mutans OMZ175 [2, 13]: 15 mm
Zone of inhibition S. mutans OMZ175 ([2]; K12, Raffinose 10% wt): 15 mm
Zone of inhibition S. mutans OMZ175 [2, 14]: 10 mm
Inhibitory activity of S. salivarius K12 in presence of saccharides, S. mutans OMZ175 ([2]; K12, saccharide 3.3% w/v): ✓
Inhibitory activity of S. salivarius K12 in presence of saccharides, S. mutans OMZ175 [2, 15]: ✓
inhibition by K12 of S. pneumoniae ([3]; 0.5 to 10% w/v raffinose): increase in inhibition
Zone of inhibition S. pneumoniae D39 ([3]; K12, Raffinose 1.7% wt): 5 mm
Zone of inhibition S. pneumoniae D39 [3, 10]: 10 mm
Zone of inhibition S. pneumoniae D39 ([3]; K12, Raffinose 2.5% wt): 8 mm
Zone of inhibition S. pneumoniae D39 [3, 11]: 9 mm
Zone of inhibition S. pneumoniae D39 ([3]; K12, Raffinose 3.3% wt): 10 mm
Zone of inhibition S. pneumoniae D39 [3, 12]: 7 mm
Zone of inhibition S. pneumoniae D39 ([3]; K12, Raffinose 5% wt): 8 mm
Zone of inhibition S. pneumoniae D39 [3, 13]: 13 mm
Zone of inhibition S. pneumoniae D39 ([3]; K12, Raffinose 10% wt): 10 mm
Zone of inhibition S. pneumoniae D39 [3, 14]: 10 mm
sensitivity of S. saprophyticus ATCC 15305 to K12 [4, 9]: sensitive
Zone of inhibition S. saprophyticus ATCC 15305 ([4]; K12, Raffinose 1.7% wt): 7 mm
Zone of inhibition S. saprophyticus ATCC 15305 [4, 10]: 0 mm
Zone of inhibition S. saprophyticus ATCC 15305 ([4]; K12, Raffinose 2.5% wt): 12 mm
Zone of inhibition S. saprophyticus ATCC 15305 [4, 11]: 8 mm
Zone of inhibition S. saprophyticus ATCC 15305 ([4]; K12, Raffinose 3.3% wt): 12 mm
Zone of inhibition S. saprophyticus ATCC 15305 [4, 12]: 11 mm
Zone of inhibition S. saprophyticus ATCC 15305 ([4]; K12, Raffinose 5% wt): 13 mm
Zone of inhibition S. saprophyticus ATCC 15305 [4, 13]: 12 mm
Zone of inhibition S. saprophyticus ATCC 15305 ([4]; K12, Raffinose 10% wt): 12 mm
Zone of inhibition S. saprophyticus ATCC 15305 [4, 14]: 11 mm
Inhibitory activity of S. salivarius K12 in presence of saccharides, S. saprophyticus ATCC 15305 ([4]; K12, saccharide 3.3% w/v): ✓
Inhibitory activity of S. salivarius K12 in presence of saccharides, S. saprophyticus ATCC 15305 [4, 15]: ✓
H. influenzae TW5 ZOI size [7]: 26 mm
P. aeruginosa I2 ZOI [8]: 10 mm
